In EP3682883A1, “QUINOLINE DERIVATIVE FOR TREATMENT OF NEUROENDOCRINE TUMORS” (Chia Tai Tianqing Pharmaceutical Group Co., Ltd., priority 2017, dated 2019):

Key:
Format in all cases: in vivo, human
[1] = tested on: ampullary neuroendocrine tumor; experiment: Clinical case Example 10: treatment of a patient, CT scan of metastatic lesions; details: prior therapy in patient history; 10mg qd orally; CT and MRI on May 25, 2018
Description: A patient, underwent a laparotomy on August 18, 2016, the gallbladder, distal part of the stomach, duodenum, and part of the pancreas were removed. […] The patient was diagnosed with ampullary neuroendocrine tumor (high proliferative activity, mitotic count, […]) on November 4, 2016, which was located in the ampulla, the common bile duct, duodenal papilla and major pancreatic duct were invaded, intravascular tumor thrombus was visible and pancreatic tissue was also invaded, immunohistochemistry: AFP (-).
10mg of everolimus (qd) was administered orally from February 7 to May 25, 2018, and the efficacy was evaluated as SD on March 29, 2018.
A daily dose of 12 mg of dihydrochloride of Compound I capsule was given once a day from July 4, 2018 (two-week administration period and one-week withdrawal period, i.e. three weeks as one treatment cycle).

[2] = tested on: retroperitoneal neuroendocrine tumor; experiment: Clinical case Example 5: treatment of a patient, CT scan of target lesions; details: prior therapy in patient history
[3] = tested on: neuroendocrine tumor which tend to be atypical carcinoid; experiment: Clinical case Example 4: treatment of a patient, CT scan of target lesions; details: prior therapy in patient history; 4 mg once a month; after two cycles
Protocol: A patient was diagnosed with neuroendocrine tumor which tend to be atypical carcinoid after a chest tumor puncture by pathology exam, then the patient was treated with chemotherapy of paclitaxel, etoposide and cisplatin for three cycles, a CT scan was performed after the treatment, efficacy of the therapy was evaluated as SD, followed by Right anterior mediastinal mass resection and partial right upper lobe resection. […] Local chest radiotherapy was performed in the first to second month after operation, and evaluated as SD after the treatment, during which III° radiation esophagitis occurred. […] Temozolomide and capecitabine was then given for 2 cycles from the 23rd month to 25th month after operation, and efficacy was evaluated as SD (large), during this period, pain in both lower extremities occurred, and even got worse. Then 4 mg of zoledronic acid was given once a month, the efficacy was evaluated as PD by CT scan after two cycles of the treatment, followingly, Shanlong (octreotide acetate microspheres for injection) was given for 1 cycle, the efficacy was evaluated as PD by CT scan which was performed after 27 months postoperatively, and the sum of the target lesion diameters was 179 mm. […]

With `CO[C@H]1C[C@@H]2CC[C@@H](C)[C@@](O)(O2)C(=O)C(=O)N2CCCC[C@H]2C(=O)O[C@H]([C@H](C)C[C@@H]2CC[C@@H](OCCO)[C@H](OC)C2)CC(=O)[C@H](C)/C=C(\C)[C@@H](O)[C@@H](OC)C(=O)[C@H](C)C[C@H](C)/C=C/C=C/C=C/1C` [everolimus] the “CT and MRI result (prior therapy)” value [1] was “the disease progressed”.
`CCN(CC)CCNC(=O)c1c(C)[nH]c(/C=C2\C(=O)Nc3ccc(F)cc32)c1C` [sunitinib malate] was tested, and the “efficacy evaluated (prior therapy)” value ([2]; after Saisheng and thymosin) was “PD (the sum of the diameters of target lesions of tumor increased by more than 20% from the baseline level)”.
For `O=P(O)(O)C(O)(Cn1ccnc1)P(=O)(O)O` [zoledronic acid], the “efficacy evaluated by CT scan (prior therapy)” value [3] was “PD (the sum of the diameters of target lesions of tumor increased by more than 20% from the baseline level)”.
With thymosin the “reexamination (prior therapy)” value ([2]; Saisheng and thymosin given together) was “no response”.
